Assay results taken from article PMC10218596 (International Journal of Molecular Sciences, 2023).
Read-outs that look alike come from different tables or passages of the source. Where a SMILES comes first, the peptide text is derived from it. Bridges are numbered along the chain shown (N, C = ends).

Columns and labels:
h[α6M67T/α3]β4 [1] = type: cell-based, human
h[α6M67T/α3]β4 [2] = target: T1, h[α6M67T/α3]β4 (Homo sapiens, UniProt P30926+P32297+Q15825, M100T); type: cell-based
T1 construct: formed by splicing the N-terminal extracellular domain of the α6 subunit with the α3 subunit; fusion partner: remainder of the human α3 subunit (CHRNA3); expressed in transfected cells; host or cells: Xenopus laevis oocytes injected with cRNA

hα6/α3β4 = target: T2, hα6/α3β4 (Homo sapiens, UniProt P30926+P32297+Q15825); assay: cell-based; type: cell-based
T2 construct: splicing the N-terminal extracellular domain of the α6 subunit with the α3 subunit; host or cells: Xenopus laevis oocytes injected with cRNA (1:1)
T2 sequence (Q15825+P32297 fused with the stated changes): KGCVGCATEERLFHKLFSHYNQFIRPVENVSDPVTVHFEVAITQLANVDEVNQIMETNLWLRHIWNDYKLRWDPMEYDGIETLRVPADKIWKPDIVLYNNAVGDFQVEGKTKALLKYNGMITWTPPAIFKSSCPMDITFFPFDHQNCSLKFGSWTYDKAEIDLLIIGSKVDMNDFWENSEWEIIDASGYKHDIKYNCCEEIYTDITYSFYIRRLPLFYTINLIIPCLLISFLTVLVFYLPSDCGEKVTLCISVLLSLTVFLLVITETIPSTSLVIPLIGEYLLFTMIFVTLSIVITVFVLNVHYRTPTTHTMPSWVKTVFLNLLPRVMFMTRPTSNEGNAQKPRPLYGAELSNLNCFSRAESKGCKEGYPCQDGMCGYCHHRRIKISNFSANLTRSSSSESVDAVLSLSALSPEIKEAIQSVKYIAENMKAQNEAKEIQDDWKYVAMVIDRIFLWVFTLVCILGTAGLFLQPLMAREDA
T2 sequence (P30926 22-498): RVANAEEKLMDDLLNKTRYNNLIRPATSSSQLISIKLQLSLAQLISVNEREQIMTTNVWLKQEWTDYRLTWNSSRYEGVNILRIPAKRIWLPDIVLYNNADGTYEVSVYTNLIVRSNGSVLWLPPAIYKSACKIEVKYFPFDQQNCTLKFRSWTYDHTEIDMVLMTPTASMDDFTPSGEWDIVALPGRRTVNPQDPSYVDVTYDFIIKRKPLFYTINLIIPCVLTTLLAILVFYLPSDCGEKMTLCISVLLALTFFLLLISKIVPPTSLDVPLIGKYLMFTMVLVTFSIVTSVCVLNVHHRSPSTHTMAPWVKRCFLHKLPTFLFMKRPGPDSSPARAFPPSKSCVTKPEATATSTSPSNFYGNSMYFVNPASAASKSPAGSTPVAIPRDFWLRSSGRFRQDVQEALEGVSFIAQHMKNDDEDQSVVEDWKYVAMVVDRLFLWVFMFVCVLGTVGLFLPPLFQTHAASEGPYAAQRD

hα6/α3β4L116Q = target: T3, hα6/α3β4L116Q (Homo sapiens, UniProt P30926+Q15825, L142Q); type: cell-based
T3 construct: splicing the N-terminal extracellular domain of the α6 subunit with the α3 subunit; mutant made by PCR mutagenesis; host or cells: Xenopus laevis oocytes injected with cRNA

h[α6N58K/α3]β4 = target: T4, h[α6N58K/α3]β4 (Homo sapiens, UniProt P30926+P32297+Q15825, N91K); type: cell-based
T4 construct: formed by splicing the N-terminal extracellular domain of the α6 subunit with the α3 subunit; human nAChR α3 subunit (CHRNA3); expressed in transfected cells; host or cells: Xenopus laevis oocytes injected with cRNA (plasmids from the University of Utah)

hα6/α3β4M160K = target: T5, hα6/α3β4M160K (Homo sapiens, UniProt P30926+Q15825, M186K); type: cell-based
T5 construct: formed by splicing the N-terminal extracellular domain of the α6 subunit with the α3 subunit; human nAChR α3 subunit (CHRNA3); expressed in transfected cells; host or cells: Xenopus laevis oocytes injected with cRNA (plasmids from the University of Utah)
T5 sequence (Q15825 26-239 limits assumed, stated change not applied): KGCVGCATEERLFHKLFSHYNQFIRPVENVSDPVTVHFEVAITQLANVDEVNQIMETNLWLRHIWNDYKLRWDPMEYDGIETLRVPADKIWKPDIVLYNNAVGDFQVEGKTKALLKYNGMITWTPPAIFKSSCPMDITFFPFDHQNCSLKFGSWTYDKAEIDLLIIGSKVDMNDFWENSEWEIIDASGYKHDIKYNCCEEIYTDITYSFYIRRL
T5 sequence (P30926 22-498 M186K): as the sequence (P30926 22-498) above, with M165K counted along it

h[α6V32L, K61R/α3]β4 = type: cell-based, human
human α6/α3β2β3 nAChR = conditions: cited from earlier work
hα6/α3β4V115I = target: T6, hα6/α3β4V115I (Homo sapiens, UniProt P30926+Q15825, V141I); assay: cell-based
T6 construct: splicing the N-terminal extracellular domain of the α6 subunit with the α3 subunit; mutant made by PCR mutagenesis; host or cells: Xenopus laevis oocytes injected with cRNA
T6 sequence (Q15825 26-239 limits assumed): as the sequence (Q15825 26-239 limits assumed, stated change not applied) above
T6 sequence (P30926 22-498 V141I): as the sequence (P30926 22-498) above, with V120I counted along it

hα6/α3β4S165I = target: T7, hα6/α3β4S165I (Homo sapiens, UniProt P30926+Q15825, S191I); type: cell-based
T7 construct: formed by splicing the N-terminal extracellular domain of the α6 subunit with the α3 subunit; human nAChR α3 subunit (CHRNA3); expressed in transfected cells; host or cells: Xenopus laevis oocytes injected with cRNA (plasmids from the University of Utah)

rα6/α3β4 = target: T8, rα6/α3β4 (Rattus norvegicus, UniProt P04757+P12392+P43143); type: cell-based
T8 construct: formed by splicing the N-terminal extracellular domain of the α6 subunit with the α3 subunit; fusion partner: remainder of the rat α3 subunit (Chrna3); expressed in transfected cells; host or cells: Xenopus laevis oocytes injected with cRNA

hα6/α3β4L107V, V115I = target: T9, hα6/α3β4L107V, V115I (Homo sapiens, UniProt P30926+Q15825, L133V/V141I); assay: cell-based; type: cell-based
T9 construct: formed by splicing the N-terminal extracellular domain of the α6 subunit with the α3 subunit; fusion partner: remainder of the human α3 subunit (CHRNA3); expressed in transfected cells; host or cells: Xenopus laevis oocytes injected with cRNA
T9 sequence (Q15825 26-239 limits assumed): as the sequence (Q15825 26-239 limits assumed, stated change not applied) above
T9 sequence (P30926 22-498 L133V/V141I): as the sequence (P30926 22-498) above, with L112V, V120I counted along it

h[α6V32L/α3]β4 [3] = assay: cell-based; design: species or system human
h[α6V32L/α3]β4 [4] = target: T10, h[α6V32L/α3]β4 (Homo sapiens, UniProt P30926+P32297+Q15825, V65L); assay: cell-based
T10 construct: formed by splicing the N-terminal extracellular domain of the α6 subunit with the α3 subunit; human nAChR α3 subunit (CHRNA3); expressed in transfected cells; host or cells: Xenopus laevis oocytes injected with cRNA (plasmids from the University of Utah)
T10 sequence (Q15825+P32297 fused with the stated changes): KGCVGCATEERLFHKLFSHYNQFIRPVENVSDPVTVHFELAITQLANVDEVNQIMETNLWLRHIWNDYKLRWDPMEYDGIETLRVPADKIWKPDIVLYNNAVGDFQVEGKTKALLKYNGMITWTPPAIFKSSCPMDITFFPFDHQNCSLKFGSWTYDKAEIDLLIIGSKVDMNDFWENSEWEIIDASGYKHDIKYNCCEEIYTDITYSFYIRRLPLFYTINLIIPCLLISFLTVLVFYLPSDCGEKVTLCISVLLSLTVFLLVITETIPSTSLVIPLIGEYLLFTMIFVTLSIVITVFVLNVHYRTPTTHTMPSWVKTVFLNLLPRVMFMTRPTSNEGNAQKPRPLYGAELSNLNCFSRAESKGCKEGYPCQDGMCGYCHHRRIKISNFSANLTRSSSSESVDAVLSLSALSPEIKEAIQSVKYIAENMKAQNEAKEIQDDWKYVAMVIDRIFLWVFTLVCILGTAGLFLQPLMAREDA
T10 sequence (P30926 22-498): as the sequence (P30926 22-498) above

h[α6M112V/α3]β4 = target: T11, h[α6M112V/α3]β4 (Homo sapiens, UniProt P30926+P32297+Q15825, M145V); type: cell-based
T11 construct: formed by splicing the N-terminal extracellular domain of the α6 subunit with the α3 subunit; fusion partner: remainder of the human α3 subunit (CHRNA3); expressed in transfected cells; host or cells: Xenopus laevis oocytes injected with cRNA
T11 sequence (Q15825+P32297 fused with the stated changes): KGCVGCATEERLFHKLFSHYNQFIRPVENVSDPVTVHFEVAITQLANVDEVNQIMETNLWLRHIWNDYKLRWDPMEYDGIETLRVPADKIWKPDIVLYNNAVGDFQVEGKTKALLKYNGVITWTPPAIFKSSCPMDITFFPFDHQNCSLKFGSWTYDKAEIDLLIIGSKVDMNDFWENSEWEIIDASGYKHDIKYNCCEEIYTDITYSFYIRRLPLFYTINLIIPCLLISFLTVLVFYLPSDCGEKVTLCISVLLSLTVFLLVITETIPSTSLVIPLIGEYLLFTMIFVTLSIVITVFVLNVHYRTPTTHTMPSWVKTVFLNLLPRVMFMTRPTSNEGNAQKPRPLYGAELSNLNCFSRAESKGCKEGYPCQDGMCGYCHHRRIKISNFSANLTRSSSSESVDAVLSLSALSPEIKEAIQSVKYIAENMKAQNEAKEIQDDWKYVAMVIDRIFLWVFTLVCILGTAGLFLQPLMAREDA
T11 sequence (P30926 22-498): as the sequence (P30926 22-498) above

hα6/α3β4Q33E = target: T12, hα6/α3β4Q33E (Homo sapiens, UniProt P30926+Q15825, Q59E); type: cell-based
T12 construct: splicing the N-terminal extracellular domain of the α6 subunit with the α3 subunit; mutant made by PCR mutagenesis; host or cells: Xenopus laevis oocytes injected with cRNA

hα6/α3β4I84V = target: T13, hα6/α3β4I84V (Homo sapiens, UniProt P30926+Q15825, I110V); type: cell-based
T13 construct: splicing the N-terminal extracellular domain of the α6 subunit with the α3 subunit; mutant made by PCR mutagenesis; host or cells: Xenopus laevis oocytes injected with cRNA

hα6/α3β4T65A = target: T14, hα6/α3β4T65A (Homo sapiens, UniProt P30926+Q15825, T91A); type: cell-based
T14 construct: splicing the N-terminal extracellular domain of the α6 subunit with the α3 subunit; mutant made by PCR mutagenesis; host or cells: Xenopus laevis oocytes injected with cRNA

[5] = read-out: inhibition of the current response to 100 μM ACh

## CC(C)C[C@@H]1NC(=O)[C@H](CC(=O)O)NC(=O)[C@@H]2CCCN2C(=O)[C@H](Cc2c[nH]cn2)NC(=O)[C@H](CCCCN)NC(=O)[C@H](CC(N)=O)NC(=O)[C@H](CCCNC(=N)N)NC(=O)[C@@H]2CSSC[C@H](NC(=O)CN)C(=O)N[C@@H](CSSC[C@@H](C(N)=O)NC1=O)C(=O)N[C@@H](CO)C(=O)N[C@@H](CC(=O)O)C(=O)N1CCC[C@H]1C(=O)N1CCC[C@H]1C(=O)N2 [TxIB] (H-GCCSDPPCRNKHPDLC-NH2; disulfide 2-8, 3-16)
h[α6M67T/α3]β4 [1]
  Ratio (change in TxIB IC50 relative to hα6/α3β4): 1.1
h[α6M67T/α3]β4 [2]
  Hill Slope: 0.9 (0.7–1.0)
hα6/α3β4
  Hill Slope: 0.8 (0.8–0.9)
  Ratio (change in TxIB IC50 relative to hα6/α3β4): 1
  blocking effect: completely blocked
  variation of activity between human and murine nAChRs: more than 30 fold
hα6/α3β4; [5]
  activity at 10 µM: 11 ± 5.9%
hα6/α3β4L116Q
  Hill Slope: 0.8 (0.7–0.9)
  Ratio (change in TxIB IC50 relative to hα6/α3β4): 1.7
h[α6N58K/α3]β4
  Hill Slope: 0.9 (0.8–1.1)
  Ratio (change in TxIB IC50 relative to hα6/α3β4): 0.9
hα6/α3β4M160K
  Hill Slope: 0.9 (0.7–1.1)
  Ratio (change in TxIB IC50 relative to hα6/α3β4): 1.5
h[α6V32L, K61R/α3]β4
  Ratio (change in TxIB IC50 relative to hα6/α3β4): 8.1
  time to full restoration of currents blocked by TxIB: ≤ 1 min
h[α6V32L, K61R/α3]β4; read-out: IC50
  IC50: 4.3 µM
h[α6V32L, K61R/α3]β4; read-out: IC50 (95% CI)
  IC50: 4.34 µM
h[α6V32L, K61R/α3]β4; [5]
  activity: 31.9 ± 8.05%
Human α6/α3β2β3 nAChR
  blocking effect: significant blocking effect
hα6/α3β4V115I
  Hill Slope: 0.8 (0.7–0.9)
  Ratio (change in TxIB IC50 relative to hα6/α3β4): 2.8
hα6/α3β4V115I; [5]
  activity at 10 µM: 20.1 ± 3.86%
hα6/α3β4S165I
  Hill Slope: 0.7 (0.6–0.9)
  Ratio (change in TxIB IC50 relative to hα6/α3β4): 1
rα6/α3β4
  blocking effect: almost no blocking effect
hα6/α3β4L107V, V115I
  Hill Slope: 0.8 (0.8–0.9)
  Ratio (change in TxIB IC50 relative to hα6/α3β4): 4.9
  time to full restoration of currents blocked by TxIB: ≤ 1 min
hα6/α3β4L107V, V115I; [5]
  activity at 10 µM: 25.1 ± 11.2%
h[α6V32L/α3]β4 [3]
  Ratio (change in TxIB IC50 relative to hα6/α3β4): 4.2
h[α6V32L/α3]β4 [4]
  Hill Slope: 0.7 (0.7–0.8)
h[α6V32L/α3]β4 [4]; [5]
  activity at 10 µM: 25.3 ± 5.23%
h[α6M112V/α3]β4
  Hill Slope: 0.8 (0.7–0.9)
  Ratio (change in TxIB IC50 relative to hα6/α3β4): 0.6
hα6/α3β4Q33E
  Hill Slope: 0.9 (0.7–1.0)
  Ratio (change in TxIB IC50 relative to hα6/α3β4): 0.8
hα6/α3β4I84V
  Hill Slope: 0.8 (0.8–0.9)
  Ratio (change in TxIB IC50 relative to hα6/α3β4): 1.4
hα6/α3β4T65A
  Hill Slope: 0.9 (0.8–1.0)
  Ratio (change in TxIB IC50 relative to hα6/α3β4): 1
